System: HT29 and Colo205 (human colon carcinoma) and H460 and Calu-6 (nonsmall cell carcinoma) xenograft tumors
Experiment: Xenograft animal tumor models
Assay type: in vivo
Conditions: gemcitabine 160 mg/kg i.p., Balb/c (nu/nu) mice
Excerpt: To test the ability of the Chk1 inhibitors of the invention to enhance the killing of tumors by DNA damaging agents in mice, xenograft tumor models using colon tumor cell lines are established. 5-fluorouracil (5-FU) or gemcitabine can be used as DNA damaging agents. HT29 and Colo205 (human colon carcinoma) and H460 and Calu-6 (nonsmall cell carcinoma) cells can be used to propagate xenograft tumors in 6-8 week old female […] Balb/c (nu/nu) mice. Mice are maintained in a laminar airflow cabinet under pathogen-free conditions and fed sterile food and water ad libitum. Cell lines are grown to subconfluence in RPMI 1640 media supplemented with 10% FBS, 100 U/mL penicillin, 100 μg/mL streptomycin, and 1.5 mM L-glutamine in a 5% CO2 humidified environment. Single cell suspensions are prepared in CMF-PBS, and cell concentration adjusted to 1×10^8 cells/mL. Mice are inoculated subcutaneously (s.c.) on the right flank or right leg with a total of 1×10^7 cells (100 μL). Mice are randomized (5-15 mice/group) into four treatment groups and used when tumors reach a volume of […] (usually 7-11 days post-inoculation). Tumors are measured with […] calipers and tumor volumes are estimated using the empirically derived formula: tumor volume (cm^3)=tumor length (cm) x tumor width (cm)×tumor depth (cm)/3.3. […] Tumor size is monitored every other day for the duration of the experiment.

SMILES: Nc1ccn([C@@H]2O[C@H](CO)[C@@H](O)C2(F)F)c(=O)n1 [gemcitabine, 2′,2′ difluoro-2′-deoxycytidine]
- tumor growth: delay in tumor growth
